{"source": "patent US20160346304A1", "about": "“AGENT FOR SUSTAINING SATIETY AND METHOD FOR SUSTAINING SATIETY” (JICHI MEDICAL UNIVERSITY, priority 2014, published 2016)", "key": {"C57BL/6J male mice [1]": {"test_system": "C57BL/6J male mice", "assay": "Food intake in fasted mice after oral gavage or intraperitoneal administration", "assay_type": "in vivo", "conditions": "for cumulative food intake (energy (kcal)): comparative example, incl. energy of administered sugar; for cumulative food intake (relative value (%)): mice fasted 16 hours", "experimental": "As the experimental animal, C57BL/6J male mice were used. The mice were acclimated to the environment by preliminary rearing for 1 week or more in individual cages. After fasting the mice for 16 hours from 18:00 p.m. on the previous day of the experiment, each test solution was orally administered by gavage or intraperitoneally administered to the mice. In each administration route, physiological saline (10 mL/kg) was administered in a control group, and D-psicose (0.3 g/kg, 1 g/kg, or 3 g/kg) was administered in a test group. The concentration of the respective test solutions at this time was […], 10%, and 30%, respectively. Each solution was administered at 9:45 a.m., and from 10:00 a.m., the mice were allowed free access to CE-2 feed (a standard mouse feed with a good nutritional balance manufactured by CLEA Japan, Inc.), and the food intake was measured over time after 0.5 hours, 1 hour, 2 hours, 3 hours, 6 hours, and 24 hours.\nIncidentally, as a comparative example, an experiment of oral administration by gavage of D-glucose (1 g/kg and 3 g/kg), which has a sweetness equivalent to D-psicose and has a similar structure, but is metabolized to contribute to energy production, was performed in the same manner.\nThe results obtained by plotting the elapsed time after administration on the abscissa, and the cumulative food intake (relative value (%)) at each elapsed time on the ordinate are shown in FIG. 1 (oral administration by gavage) and FIG. 2 (intraperitoneal administration). Incidentally, the cumulative food intake (relative value (%)) is expressed as the ratio of the cumulative food intake in each group with the average food intake in the physiological saline group at each time in each experiment performed taken as 100%. The obtained results are expressed as a mean and a standard error. A statistical test was performed by a one-way analysis of variance, and if a significant difference was detected, a Dunnett's test in comparison with the control group was performed. The significance level for the test was set to less than 5% on both sides, and the data was marked with * when the P value was less than 5%, and the data was marked with ** when the P value was less than 1%.\nThe cumulative food intake (energy (kcal)) after D-glucose (1 g/kg and 3 g/kg) was orally administered by gavage in the comparative example is shown in FIG. 3. […] The notation of the results and the statistical analysis is the same as in FIGS. 1 and 2."}, "healthy subjects": {"test_system": "healthy subjects", "assay": "Satiety, hunger and appetite questionnaire (VAS) after breakfast in healthy human subjects", "assay_type": "in vivo", "conditions": "humans", "experimental": "Therefore, in this test, after fasting the subjects from 12 hours before the test day, the subjects were made to ingest either of the test solutions (150 mL) prepared to have the same degree of sweetness by adding 5 g of D-psicose or 10 mg of aspartame which is a high intensity sweetener as a control food. Incidentally, the concentration of the respective test solutions was 3.3% in the D-psicose group and 0.005% in the aspartame group. Further, the ingestion amount of D-psicose of the subjects was 0.071 to 0.096 g (mean: 0.085 g) per kilogram of body weight. After the ingestion, breakfast (sandwich, yogurt, and juice) (total calories: 405 kcal, proteins: 10.2%, fats: 28.4%, carbohydrates: 61.4%) was ingested in 10 minutes. During the test, the subjects were fasted except that they were allowed to free access to only prescribed water.\nThe questionnaire with respect to appetite was filled out by the evaluation using the VAS (Visual Analog Scale) method and was prepared according to NPL 11. As the questionnaire items, the following three items: satiety, hunger, and appetite were set. In each item, the subjects were made to put a mark on a line with a length of 100 mm at a position most close to the state at that moment, then, the length from the left end to the position where the mark was put was measured with a ruler and converted into a numerical value. The obtained results are expressed as a mean and a standard error. A statistical test was performed using an unpaired Student's t test, and the data was marked with * when the P value was less than 5%, the data was marked with ** when the P value was less than 1%, and the data was marked with *** when the P value was less than 0.1%."}, "[2]": {"assay": "Onset and duration of satiety after ingestion of the agent", "assay_type": "in vivo"}, "c-Fos": {"test_system": "c-Fos", "assay": "c-Fos expression (marker of neuronal activation) by immunostaining in nodose ganglion and medullary nucleus tractus solitarius", "assay_type": "in vivo, mice", "conditions": "oral gavage 1 g/kg, fasted overnight, compared with physiological saline group", "experimental": "The activation of “vagal afferent nuron” and “medullary nucleus tractus solitarius”, which is a projection site of the vagal afferent nerves, caused by the oral administration of D-psicose was analyzed based on the expression level of c-Fos, which is a marker of neuronal activation, using an immunostaining method. The c-Fos is a kind of immediate early gene and is an intranuclear protein whose expression level increases with the activation of a nerve and can be utilized as a marker of neuronal activation. The cell bodies of the vagal afferent neurons are all localized in the nodose ganglion, and these vagal afferent neurons are bipolar which project to the peripheral side (many internal organs such as heart, lung, gastrointestinal tract, pancreas, and liver) and the central side (medullary nucleus tractus solitarius).\nAs the experimental animal, C57BL/6J male mice were used. The mice were acclimated to the environment by preliminary rearing and handling for 1 week or more in individual cages. After fasting the mice overnight, D-psicose (1 g/kg) was orally administered by gavage. […]\nThe results of the expression level of c-Fos in the nodose ganglion and in the medullary nucleus tractus solitarius in the mice after orally administering D-psicose are shown in FIG. 5. The obtained results are expressed as a mean and a standard error. […]"}, "[3]": {"conditions": "cited from earlier work"}, "C57BL/6J male mice [4]": {"test_system": "C57BL/6J male mice", "assay": "Conditioned taste aversion test (preference to saccharin solution)", "assay_type": "in vivo", "conditions": "conditioning on day 6, test on day 8", "experimental": "As the experimental animal, C57BL/6J male mice which were the same as used in the previous experiment were used. The mice reared in individual cages were given two bottles of water only for 2 hours in a period between 10:00 a.m. and 12:00 p.m. for 5 days, whereby the mice were acclimated to the water restriction schedule. On day 6, a 0.15% saccharin solution was presented for 30 minutes, and thereafter, lithium chloride (3 mmol/kg) was intraperitoneally administered, whereby the mice were made to acquire an aversion to the taste of the saccharin solution (conditioning). In the same manner, a control group in which physiological saline (10 mL/kg) was orally administered and a test group in which D-psicose (1 g/kg or 3 g/kg) was orally administered were prepared. On day 7 serving as a rest day, the above-described water restriction schedule was performed. On day 8 serving as a test day, two bottles, one bottle containing a 0.15% saccharin solution and the other bottle containing water, were simultaneously presented for 30 minutes, and the ratio of preference to the saccharin solution (the intake amount of saccharin/the total intake amount from the two bottles) was determined.\nThe ratio of preference to the saccharin solution after making the mice to acquire a conditioned taste aversion is shown in FIG. 4. The obtained results are expressed as a mean and a standard error. A statistical test was performed by a one-way analysis of variance, and a Dunnett's test in comparison with the control group was performed. The data was marked with ** when the P value was less than 1%."}, "C57BL/6J male mice [5]": {"test_system": "C57BL/6J male mice", "assay": "Liquid food intake in sham-operated and subdiaphragmatic vagotomized mice", "assay_type": "in vivo", "conditions": "oral gavage 1 g/kg", "experimental": "As the experimental animal, C57BL/6J male mice were used. The mice were divided into the following two groups: a sham-operated group consisting of sham-operated mice; and a subdiaphragmatic vagotomized group consisting of subdiaphragmatic vagotomized mice, and were subjected to the operation, respectively. After a recovery period of one week, the mice were fasted overnight (for 16 hours) on the previous day of the experiment of food intake. Thereafter, each test solution was orally administered by gavage to the mice, and the intake of a liquid food (milk for babies and toddlers) after the administration was examined. As the respective test solutions administered, in both of the sham-operated group and the subdiaphragmatic vagotomized group, physiological saline (10 mL/kg) or D-psicose (1 g/kg) was orally administered by gavage. The concentration of the D-psicose solution at this time was 10%. Each test solution was orally administered by gavage to mice at 9:45 a.m., and from 10:00 a.m., the mice were allowed free access to the liquid food, and the food intake was measured over time.\nThe cumulative liquid food intake after orally administering D-psicose (1 g/kg) by gavage to the subdiaphragmatic vagotomized mice and the sham-operated mice is shown in FIG. 6. […] The obtained results are expressed as a mean and a standard error. […]"}, "[6]": {"conditions": "as compared with D-glucose and D-fructose (NPL 9); cited from earlier work"}, "[7]": {"conditions": "oral administration by gavage, 1 g/kg"}, "[8]": {"conditions": "oral administration by gavage, 3 g/kg"}, "[9]": {"conditions": "5 g in 150 mL before breakfast, in comparison with control food (aspartame)"}}, "data": [{"smiles": "O=C[C@H](O)[C@@H](O)[C@H](O)[C@H](O)CO", "note": "[D-glucose, reference compound]", "values": [{"measurement": "cumulative food intake (energy (kcal))", "setting": "C57BL/6J male mice [1]; [7]", "value": "did not affect food intake"}, {"measurement": "cumulative food intake (energy (kcal))", "setting": "C57BL/6J male mice [1]; [8]", "value": "did not affect food intake"}]}, {"smiles": "O=C(CO)[C@H](O)[C@H](O)[C@H](O)CO", "note": "[D-psicose]", "values": [{"measurement": "hunger (VAS)", "setting": "healthy subjects; 5 g before breakfast, from immediately after breakfast up to after 4 hours", "value": "significantly suppressed"}, {"measurement": "duration of effect of suppressing appetite (VAS)", "setting": "healthy subjects; [9]", "value": "≥ 4", "unit": "h"}, {"measurement": "duration of effect of suppressing hunger (VAS)", "setting": "healthy subjects; [9]", "value": "≥ 4", "unit": "h"}, {"measurement": "satiety after eating (VAS)", "setting": "healthy subjects; [9]", "value": "sustained"}, {"measurement": "time until return to the state before the ingestion", "setting": "[2]", "value": 24, "unit": "h"}, {"measurement": "time until the effect is exhibited after the ingestion", "setting": "[2]", "value": "about 15 minutes"}, {"measurement": "expression level of c-Fos in the medullary nucleus tractus solitarius", "setting": "c-Fos", "value": "significantly increased"}, {"measurement": "expression level of c-Fos in the nodose ganglion", "setting": "c-Fos", "value": "significantly increased"}, {"measurement": "cumulative food intake (relative value (%))", "setting": "C57BL/6J male mice [1]; intraperitoneal administration, 1 g/kg", "value": "no effect on food intake"}, {"measurement": "cumulative food intake (relative value (%))", "setting": "C57BL/6J male mice [1]; intraperitoneal administration, 3 g/kg, 0.5 to 6 hours after administration", "value": "significantly decreased"}, {"measurement": "cumulative food intake (relative value (%))", "setting": "C57BL/6J male mice [1]; oral administration by gavage, 0.3 g/kg, any time zone after administration", "value": "a change in food intake was not observed"}, {"measurement": "cumulative food intake (relative value (%))", "setting": "C57BL/6J male mice [1]; oral administration by gavage, 1 g/kg, 0.5 to 6 hours after administration", "value": "significantly decreased"}, {"measurement": "cumulative food intake (relative value (%))", "setting": "C57BL/6J male mice [1]; oral administration by gavage, 3 g/kg, 0.5 to 6 hours after administration", "value": "significantly decreased"}, {"measurement": "effective amount to reduce food intake in mice", "setting": "C57BL/6J male mice [1]; oral administration by gavage, mice", "value": 1, "unit": "g/kg"}, {"measurement": "increase in blood glucose level after eating", "setting": "[3]; humans, 5 g ingested along with a regular meal (NPL 6, NPL 7)", "value": "suppressed"}, {"measurement": "blood glucose level", "setting": "[3]; ingested alone (NPL 7)", "value": "does not increase"}, {"measurement": "blood glucose level after eating", "setting": "[3]; prediabetic adults, 5 g with breakfast versus 10 mg aspartame, crossover (NPL 6)", "value": "significant decrease"}, {"measurement": "ratio of preference to the saccharin solution", "setting": "C57BL/6J male mice [4]; [7]", "value": "did not affect the preference to the saccharin solution"}, {"measurement": "ratio of preference to the saccharin solution", "setting": "C57BL/6J male mice [4]; [8]", "value": "did not affect the preference to the saccharin solution"}, {"measurement": "cumulative liquid food intake (g)", "setting": "C57BL/6J male mice [5]; sham-operated group, up to 3 hours after administration", "value": "significantly suppressed"}, {"measurement": "cumulative liquid food intake (g)", "setting": "C57BL/6J male mice [5]; subdiaphragmatic vagotomized group", "value": "the effect was all lost"}, {"measurement": "absorption in the small intestine", "setting": "[6]", "value": "slower"}]}, {"smiles": "[Cl-].[Li+]", "note": "[lithium chloride, reference compound]", "values": [{"measurement": "ratio of preference to the saccharin solution", "setting": "C57BL/6J male mice [4]; intraperitoneal, 3 mmol/kg", "value": "significantly decreased"}]}]}
